Values joined by “and” are separate entries in the source; they are usually repeats but may differ in a detail not shown here. Equal entries are not always repeated. Where two headings read alike, the source gives them in different places.
Experiments:
[1] = system: 3T3 mouse embryo fibroblasts; test: MTT cytotoxicity assay, 3T3 cells; assay type: cell-based; conditions: for IC50: Mus musculus, Fibroblast, MTT
Protocol: (§1) For cytotoxicity experiments, cancer cells were seeded at a density of 5,000 (MCF-7), 10,000 (HL-60) or 2,000 cells/well (HCT116 and A549) in 96-well plates (TPP) for 24 h/37°C prior to the addition of examined agents. The non-cancerous cells, 3T3 and H9c2 cells, were cultured for 24 h/37°C in 96-well plates at a density of 10,000 cells/well, the medium was then changed to serum- and pyruvate-free DMEM (Sigma-Aldrich) and incubated with the cells for another 24 h/37°C. The cytotoxic effects of Bp4eT and its metabolites were studied at different concentrations after a 72 h/37°C incubation. In order to aid the dissolution of the lipophilic ligands, 0.1% dimethyl sulfoxide (v/v) (DMSO; Sigma-Aldrich) was present in the culture medium of all groups. At this concentration, DMSO had no effect on cellular proliferation or viability.
(§2) The viability of cells were determined using an MTT assay (Sigma-Aldrich) according to previously established methods. The optical density of soluble MTT was measured at λ = 570 nm, subtracting the λ = 690 nm background using a Tecan Infinite 200M plate reader (Tecan Group, Männedorf, Switzerland). The viability or proliferation of experimental groups was expressed as a percentage of the untreated controls (100%).
(§3) SigmaStat for Windows 3.5 (Systat Software, San Jose, CA, USA) statistical software package was utilized to analyze results. The data are expressed as the mean ± SD of a given number of experiments. Statistical significance was determined using a one-way ANOVA with a Bonferroni post-hoc test or Student’s t-test. The results were considered to be statistically significant when p < 0.05. The IC50 values were calculated using CalcuSyn 2.0 software (Biosoft, Cambridge, UK). Cell cycle analysis was evaluated using MultiCycle AV Software (Phoenix Flow Systems, San Diego, CA, USA).

[2] = system: MCF-7 human breast adenocarcinoma cells; test: MTT cytotoxicity assay, MCF-7 cells; assay type: cell-based; conditions: for IC50: MTT, read-out: IC50
Protocol: as §1, §2, §3

caspase 8 = test: Caspase activity, luminescent kit, caspase 8; assay type: cell-based, human; conditions: for kaspáza 8, raw signal / kaspáza 8, signal / viabilita: individual experiments by date; for kaspáza 8, raw signal, průměry / kaspáza 8, % kontroly / kaspáza 8, signal / viabilita, průměry: mean; for kaspáza 8, % kontroly / kaspáza 8, signal / viabilita / kaspáza 8, signal / viabilita, průměry: normalised to viability
Protocol: To assess the effect of the compounds on caspase activity, MCF-7 cells were incubated with 100 nM Bp4eT or its metabolites for 3, 24 or 72 h/37°C in 96-well plates, as described above. The cells were then lysed by adding 100 μL of cold lysis buffer (100 mM HEPES, 10 mM CHAPS, 10 mM D-L-dithiothreitol, pH 7.4) to 100 μL of medium in each well. Lysates were immediately frozen at -80°C. Thawed lysates were used to assess caspase activity using luminescent kits for caspases 3/7, 8 and 9 (Promega, Madison, WI, USA). The luminescence was measured using the Tecan Infinite 200M plate reader. Caspase activity in the experimental groups was corrected according to the cellular viability of each group and expressed as a percentage of activity of the untreated control (100%).

MCF-7 cells = test: Cell cycle analysis by flow cytometry (propidium iodide); assay type: cell-based, human; conditions: 0.1 μM, 72 h, control 33%
Protocol: To examine the effect of the agents on the cell cycle, MCF-7 cells were seeded in 60 mm Petri dishes at a density of 240,000 cells/dish and incubated with Bp4eT or its metabolites for 72 h/37°C. The cells were then harvested, fixed by ethanol and stained by propidium iodide (Molecular Probes, Eugene, OR, USA) for 30 min/37°C, as described previously. Cells were analyzed using Accuri C6 flow cytometer (Becton Dickinson and Company, San Jose, CA USA). Propidium iodide was excited at λex = 488 nm and fluorescence analyzed at λem = 585 nm (FL-2) with a total of 10,000 events collected per analysis.
as §3

CCN=CNN=C(c1ccccc1)c1ccccn1 [Bp4eA, N ^3-ethyl-N ^1-[phenyl(pyridin-2-yl)methylene]formamidrazone]
MTT viability (0 = 100) ([1]; 3T3, 10 000 b/j, koncentrace 300 μM, individual experiments): 76.7642 and 78.9793 and 76.2498
MTT viability (0 = 100) ([1]; 3T3, 10 000 b/j, koncentrace 1000 μM, individual experiments): 48.7008 and 53.1589 and 49.6824
IC50 ([1]; 3T3, 10 000 b/j, individual experiments, read-out: IC50): 748 µM
IC50 ([1]; 3T3, 10 000 b/j, mean, read-out: IC50, průměr): 1030 µM
IC50 ([1]; 72 h, 3T3, 72 h/37°C, mean ± SD, n ≥ 4, read-out: IC50): 1030 ± 204 µM
Therapeutic index, IC50 non-cancerous cells / IC50 neoplastic cells ([2]; 3T3/MCF-7): 17.3
Therapeutic index, IC50 non-cancerous cells / IC50 neoplastic cells ([2]; H9c2/MCF-7): 7.0
IC50 ([2]; Homo sapiens, MCF7, 72 h, MCF-7, 72 h/37°C, mean ± SD, n ≥ 4): 59.4 ± 8.9 µM
IC50 ([2]; Homo sapiens, MCF7, MCF-7, 5 000 b/j, průměr (mean)): 59.4 µM
IC50 ([2]; Homo sapiens, MCF7, MCF-7, 5 000 b/j, single experiment (by date)): 69.9 µM
IC50 ([2]; MCF-7, 5 000 b/j, single experiment (by date)): 48.9 µM and 62.4 µM and 56.6 µM
MTT, value relative to 0 μM = 100 ([2]; MCF-7, 5 000 b/j, koncentrace 1 μM, průměr (mean)): 93.04
MTT, value relative to 0 μM = 100 ([2]; MCF-7, 5 000 b/j, koncentrace 1 μM, single experiment (by date)): 90.8485 and 99.965 and 93.7506 and 93.1688 and 87.4567
MTT, value relative to 0 μM = 100 ([2]; MCF-7, 5 000 b/j, koncentrace 3 μM, průměr (mean)): 85.43
MTT, value relative to 0 μM = 100 ([2]; MCF-7, 5 000 b/j, koncentrace 3 μM, single experiment (by date)): 93.874 and 91.0261 and 71.3771
MTT, value relative to 0 μM = 100 ([2]; MCF-7, 5 000 b/j, koncentrace 10 μM, průměr (mean)): 84.39
MTT, value relative to 0 μM = 100 ([2]; MCF-7, 5 000 b/j, koncentrace 10 μM, single experiment (by date)): 92.9139 and 90.5956 and 78.0175 and 76.0291
MTT, value relative to 0 μM = 100 ([2]; MCF-7, 5 000 b/j, koncentrace 30 μM, průměr (mean)): 81.82
MTT, value relative to 0 μM = 100 ([2]; MCF-7, 5 000 b/j, koncentrace 30 μM, single experiment (by date)): 88.8876 and 87.4579 and 79.9984 and 70.9265
MTT, value relative to 0 μM = 100 ([2]; MCF-7, 5 000 b/j, koncentrace 100 μM, průměr (mean)): 26.24
MTT, value relative to 0 μM = 100 ([2]; MCF-7, 5 000 b/j, koncentrace 100 μM, single experiment (by date)): 35.9762 and 29.29 and 21.3398 and 22.2541 and 22.3478
MTT, value relative to 0 μM = 100 ([2]; MCF-7, 5 000 b/j, koncentrace 300 μM, průměr (mean)): 16.91
MTT, value relative to 0 μM = 100 ([2]; MCF-7, 5 000 b/j, koncentrace 300 μM, single experiment (by date)): 19.6559 and 17.473 and 16.628 and 13.8677
MTT, value relative to 0 μM = 100 ([2]; MCF-7, 5 000 b/j, koncentrace 1000 μM, průměr (mean)): 14.02
MTT, value relative to 0 μM = 100 ([2]; MCF-7, 5 000 b/j, koncentrace 1000 μM, single experiment (by date)): 14.4001 and 13.0033 and 14.9518 and 13.7358
kaspáza 8, raw signal (caspase 8; 3 hodiny): 2039 and 1218.5 and 1153 and 868.5
kaspáza 8, raw signal, průměry (caspase 8; 3 hodiny): 1319.75
kaspáza 8, % kontroly (caspase 8; 3 hodiny): 98.01 % kontroly
kaspáza 8, signal / viabilita (caspase 8; 3 hodiny): 21.0632 and 12.5873 and 11.9107 and 8.972
kaspáza 8, signal / viabilita, průměry (caspase 8; 3 hodiny): 13.6332
kaspáza 8, raw signal (caspase 8; 24 hodin): 1556 and 1108.5 and 1675.5 and 1199
kaspáza 8, raw signal, průměry (caspase 8; 24 hodin): 1384.75
kaspáza 8, % kontroly (caspase 8; 24 hodin): 91.04 % kontroly
kaspáza 8, signal / viabilita (caspase 8; 24 hodin): 16.2773 and 11.596 and 17.5273 and 12.5427
kaspáza 8, signal / viabilita, průměry (caspase 8; 24 hodin): 14.4858
kaspáza 8, raw signal (caspase 8; 72 hodin): 6752 and 5806 and 7204 and 6996
kaspáza 8, raw signal, průměry (caspase 8; 72 hodin): 6689.5
kaspáza 8, % kontroly (caspase 8; 72 hodin): 103.53 % kontroly
kaspáza 8, signal / viabilita (caspase 8; 72 hodin): 72.5709 and 62.4033 and 77.4291 and 75.1935
kaspáza 8, signal / viabilita, průměry (caspase 8; 72 hodin): 71.8992
Percentage of cells in the G2/M phase (MCF-7 cells): slight, but significant (p < 0.01–0.05) decrease

— paper PMC4604124, “In Vitro Characterization of the Pharmacological Properties of the Anti-Cancer Chelator, Bp4eT, and Its Phase I Metabolites” (PLoS ONE, 2015)
